Like-named read-outs stand apart in the source and are kept apart here.
Experiments:
[1] = test system: Key Broadleaf Weed and Crop Species; assay: Post-emergent Test II herbicidal activity (Table 5); assay type: in vivo; conditions: post-emergence, 336 h, 14 days after application; for pest or weed control at 70 g/ha: application rate 70 g ai/ha; for pest or weed control at 140 g/ha: application rate 140 g ai/ha
Method in brief: (§1)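 Foliar application at 187 L/ha to greenhouse-grown seedlings (first or second true leaf); subirrigation thereafter. Visual 0–100% injury at 14 d relative to untreated plants.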

[2] = test system: Key Grass and Sedge Weeds as well as Grass Crops; assay: Post-emergent Test II herbicidal activity (Table 6); assay type: in vivo; conditions: post-emergence, 336 h; for pest or weed control at 70 g/ha: 70 g ai/ha; for pest or weed control at 140 g/ha: 140 g ai/ha
Method in brief: as §1

[3] = ABUTH: velvetleaf (Abutilon theophrasti), read-out: Visual Growth Reduction (%) 14 Days After Application, ABUTH
[4] = AMARE: redroot pigweed (Amaranthus retroflexus), read-out: Visual Growth Reduction (%) 14 Days After Application, AMARE
[5] = BRSNN: oilseed-rape, canola (Brassica napus), read-out: Visual Growth Reduction (%) 14 Days After Application, BRSNN
[6] = CHEAL: lambsquarters (Chenopodium album), read-out: Visual Growth Reduction (%) 14 Days After Application, CHEAL
[7] = EPHHL: wild poinsettia (Euphorbia heterophylla), read-out: Visual Growth Reduction (%) 14 Days After Application, EPHHL
[8] = HELAN: sunflower (Helianthus annuus), read-out: Visual Growth Reduction (%) 14 Days After Application, HELAN
[9] = VIOTR: wild pansy (Viola tricolor), read-out: Visual Growth Reduction (%) 14 Days After Application, VIOTR
[10] = CYPES: yellow nutsedge (Cyperus esculentus), read-out: Visual Growth Reduction (%) 14 Days After Application, CYPES
[11] = DIGSA: crabgrass (Digitaria sanguinalis), read-out: Visual Growth Reduction (%) 14 Days After Application, DIGSA
[12] = ECHCG: barnyardgrass (Echinochloa crus-galli), read-out: Visual Growth Reduction (%) 14 Days After Application, ECHCG
[13] = ORYSA: rice (Oryza sativa), crop, read-out: Visual Growth Reduction (%) 14 Days After Application, ORYSA
[14] = SETFA: giant foxtail (Setaria faberi), read-out: Visual Growth Reduction (%) 14 Days After Application, SETFA
[15] = SORVU: grain sorghum (Sorghum vulgare), read-out: Visual Growth Reduction (%) 14 Days After Application, SORVU
[16] = TRZSS (wheat, Triticum aestivum), crop, read-out: Visual Growth Reduction (%) 14 Days After Application, TRZSS
[17] = ZEAMX: maize, corn (Zea mays), crop, read-out: Visual Growth Reduction (%) 14 Days After Application, ZEAMX

SMILES: COC(=O)c1nc(-c2ccc(Br)c(F)c2F)cc(N)c1Cl [Compound 114, methyl 4-amino-6-(4-bromo-2,3-difluorophenyl)-3-chloropicolinate]
- pest or weed control at 70 g/ha [1, 3]: 95 to 100%
- pest or weed control at 140 g/ha [1, 3]: 95 to 100%
- pest or weed control at 70 g/ha [1, 4]: 95 to 100%
- pest or weed control at 140 g/ha [1, 4]: 95 to 100%
- pest or weed control at 70 g/ha [1, 5]: 85 to 94%
- pest or weed control at 140 g/ha [1, 5]: 95 to 100%
- pest or weed control at 70 g/ha [1, 6]: 95 to 100%
- pest or weed control at 140 g/ha [1, 6]: 95 to 100%
- pest or weed control at 70 g/ha [1, 7]: 95 to 100%
- pest or weed control at 140 g/ha [1, 7]: 95 to 100%
- pest or weed control at 70 g/ha [1, 8]: 95 to 100%
- pest or weed control at 140 g/ha [1, 8]: 95 to 100%
- pest or weed control at 70 g/ha [1, 9]: 95 to 100%
- pest or weed control at 140 g/ha [1, 9]: 95 to 100%
- pest or weed control at 70 g/ha [2, 10]: 95 to 100%
- pest or weed control at 140 g/ha [2, 10]: 95 to 100%
- pest or weed control at 70 g/ha [2, 11]: 60 to 74%
- pest or weed control at 140 g/ha [2, 11]: 60 to 74%
- pest or weed control at 70 g/ha [2, 12]: 95 to 100%
- pest or weed control at 140 g/ha [2, 12]: 95 to 100%
- pest or weed control at 70 g/ha [2, 13]: 0 to 29%
- pest or weed control at 140 g/ha [2, 13]: 0 to 29%
- pest or weed control at 70 g/ha [2, 14]: 60 to 74%
- pest or weed control at 140 g/ha [2, 14]: 75 to 84%
- pest or weed control at 70 g/ha [2, 15]: 95 to 100%
- pest or weed control at 140 g/ha [2, 15]: 95 to 100%
- pest or weed control at 70 g/ha [2, 16]: 30 to 44%
- pest or weed control at 140 g/ha [2, 16]: 45 to 59%
- pest or weed control at 70 g/ha [2, 17]: 85 to 94%
- pest or weed control at 140 g/ha [2, 17]: 85 to 94%

— patent US9113629B2, “4-amino-6-(4-substituted-phenyl)-picolinates and 6-amino-2-(4-substituted-phenyl)-pyrimidine-4-carboxylates and their use as herbicides” (DOW AGROSCIENCES LLC, priority 2013, dated 2015)
